Laboratory results reported in patent US8143397B2 (Medichem S.A., priority 2006, dated 2012).

Assay: Particle size distribution (Malvern laser particle size analyser)
Format: physicochemical
Conditions: dispersed in 0.1% Tween 20 in DI water, sonicated 2 minutes
Method: vii. Particle Size Distribution
Particle size measurement was obtained using a Malvern particle size analyser equipped with a 2 milliwatt Helium/Neon laser and a Fourier Transform lens system. The sample was run using the […]. The sample unit was a MS1-Small Volume Sample Dispersion Unit stirred cell. The dispersant was DI water. The sample particle size distribution was assumed to follow a normal distribution.
Analysis model: polydisperse.
Setup presentation: standard wet (30HD)
1 ml of Tween 20 was diluted to 1000 ml with water (solution 0.1% of Tween 20 in DI water). Approximately 250 mg of sample was dispersed in 20 ml of the solution 0.1% of Tween 20 in DI water. This sample was sonicated for 2 minutes and delivered dropwise to the previously filled and background corrected measuring cell until the desired obscuration was reached.
This dispersion (the dispersion in the stirring measuring cell) was measured after stabilization of the obscuration.

SMILES | Particle Size Distribution D(v, 0.1) | Particle Size Distribution D(v, 0.5) | Particle Size Distribution D(v, 0.9) | Mean Diameter
C[C@@H](c1ncncc1F)[C@](O)(Cn1cncn1)c1ccc(F)cc1F [Example 2, Voriconazole] | 36.9 μm | 102.4 μm | 220.0 μm | 
C[C@@H](c1ncncc1F)[C@](O)(Cn1cncn1)c1ccc(F)cc1F [Example 18, Voriconazole] | 4.5 μm | 16.9 μm | 37.4 μm | 18.7 μm
C[C@@H](c1ncncc1F)[C@](O)(Cn1cncn1)c1ccc(F)cc1F [Example 21, Voriconazole] | 5.3 μm | 16.7 μm | 34.1 μm | 18.3 μm
C[C@@H](c1ncncc1F)[C@](O)(Cn1cncn1)c1ccc(F)cc1F [Example 24, Voriconazole] | 35.9 μm | 147.6 μm | 350.0 μm | 

Second part, the compound after the results:

Particle Size Distribution D(v, 0.1) | Particle Size Distribution D(v, 0.5) | Particle Size Distribution D(v, 0.9) | Mean Diameter | SMILES
5.7 μm | 20.8 μm | 43.4 μm | 23.3 μm | C[C@@H](c1ncncc1F)[C@](O)(Cn1cncn1)c1ccc(F)cc1F [Example 19, Voriconazole]
4.2 μm | 14.9 μm | 34.1 μm | 17.5 μm | C[C@@H](c1ncncc1F)[C@](O)(Cn1cncn1)c1ccc(F)cc1F [Example 20, Voriconazole]
5.2 μm | 19.1 μm | 39.1 μm | 21.0 μm | C[C@@H](c1ncncc1F)[C@](O)(Cn1cncn1)c1ccc(F)cc1F [Example 22, Voriconazole]
5.2 μm | 17.9 μm | 37.5 μm | 19.8 μm | C[C@@H](c1ncncc1F)[C@](O)(Cn1cncn1)c1ccc(F)cc1F [Example 23, Voriconazole]
5.4 μm | 17.5 μm | 37.2 μm | 19.4 μm | C[C@@H](c1ncncc1F)[C@](O)(Cn1cncn1)c1ccc(F)cc1F [Example 25, Voriconazole]

Assay: Tapped density
Format: physicochemical
Conditions: after milling, sieving and blending

SMILES | Tapped Density
C[C@@H](c1ncncc1F)[C@](O)(Cn1cncn1)c1ccc(F)cc1F [Example 24, Voriconazole] | 0.82 g/mL
